Target: T1, Red cGull (Mus musculus, UniProt Q8CG03)
T1 construct: gene Pde5a; N-terminal mouse APP fragment (aa 190-286) fused for bacterial expression; purified on Ni-NTA from E. coli JM109(DE3)
Assay: fluorescence intensity dose-response, four-parameter logistic fit
Format: binding

T1 sequence (Q8CG03 164-298): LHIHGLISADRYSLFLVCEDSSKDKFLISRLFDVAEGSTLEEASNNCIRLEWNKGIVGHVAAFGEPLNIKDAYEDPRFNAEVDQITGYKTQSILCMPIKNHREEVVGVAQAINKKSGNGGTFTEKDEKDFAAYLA

EC50: 330 nM
Compound: Nc1nc2c(ncn2[C@@H]2O[C@@H]3COP(=O)(O)O[C@H]3[C@H]2O)c(=O)[nH]1 [cGMP]

From publication PMC9445041, “Development of a red fluorescent protein-based cGMP indicator applicable for live-cell imaging” (Communications Biology, 2022)
